Experimental data published in the supplement of paper PMC10307832.

Key:
Assay in all cases: relative viability (nuclei count vs DMSO), 5 days (fraction); higher = more cells survive
[1] = compound: CNC(=O)c1ccccc1Sc1ccc2c(/C=C/c3ccccn3)n[nH]c2c1 [Axitinib] + COc1cc2c(Oc3ccc(NC(=O)C4(C(=O)Nc5ccc(F)cc5)CC4)cc3F)ccnc2cc1OCCCN1CCOCC1 [Foretinib] (partner 0.25 µM)
In short: (§1)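 Relative viability is defined as nuclei in treated wells over nuclei in vehicle wells. Duplicate plates were run and medians reported. Lung cancer cell lines in 1536-well plates were dosed by pin tool one day after seeding, with one drug or with a fixed anchor-drug dose plus five library-drug doses (not always all listed) in √10 steps, and nuclei were counted after 5 days.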

[2] = compound: Nc1nc(Nc2ccc3c(c2)CC[C@@H](N2CCCC2)CC3)nn1-c1cc2c(nn1)-c1ccccc1CCC2 [Bemcentinib] + CC(C)C[C@H](NC(=O)[C@H](Cc1ccccc1)NC(=O)c1cnccn1)B(O)O [Bortezomib] (partner 0.002 µM)
In short: as §1

[3] = compound: CC1=CC=C(C=C1)C(=O)CN2C3=C(CCCC3)SC2=N [Pifithrin_alpha] + COc1cc2c(Oc3ccc(NC(=O)C4(C(=O)Nc5ccc(F)cc5)CC4)cc3F)ccnc2cc1OCCCN1CCOCC1 [Foretinib] (partner 0.25 µM)
In short: as §1

[4] = compound: Nc1nc(Nc2ccc3c(c2)CC[C@@H](N2CCCC2)CC3)nn1-c1cc2c(nn1)-c1ccccc1CCC2 [Bemcentinib] + CCNC(=O)c1noc(-c2cc(C(C)C)c(O)cc2O)c1-c1ccc(CN2CCOCC2)cc1 [Luminespib] (partner 0.01 µM)
In short: as §1

Row | Cell Line | relative viability ([1]; first compound 0.005 µM) | relative viability ([1]; first compound 0.01581 µM) | relative viability ([1]; first compound 0.05 µM) | relative viability ([1]; first compound 0.1581 µM) | relative viability ([1]; first compound 0.5 µM) | relative viability ([2]; first compound 0.04 µM) | relative viability ([2]; first compound 0.1265 µM) | relative viability ([2]; first compound 0.4 µM) | relative viability ([2]; first compound 1.265 µM) | relative viability ([2]; first compound 4 µM) | relative viability ([3]; first compound 1 µM) | relative viability ([3]; first compound 3.162 µM) | relative viability ([3]; first compound 10 µM) | relative viability ([3]; first compound 31.62 µM) | relative viability ([3]; first compound 100 µM) | relative viability ([4]; first compound 0.04 µM) | relative viability ([4]; first compound 0.1265 µM) | relative viability ([4]; first compound 0.4 µM) | relative viability ([4]; first compound 1.265 µM) | relative viability ([4]; first compound 4 µM)
1 | RERF-LC-KJ | 0.916 | 0.892 | 0.887 | 0.86 | 0.854 | 1.1 | 1.29 | 1.3 | 1.21 | 1.09 | 0.886 | 0.829 | 0.792 | 0.813 | 0.786 | 1.45 | 1.23 | 1.24 | 1.17 | 1.1
2 | NCI-H2405 | 1.03 | 1.04 | 1.13 | 1.03 | 1.15 | 1.01 | 0.853 | 0.985 | 1.07 | 0.938 | 1.01 | 0.974 | 0.907 | 0.884 | 0.784 | 0.659 | 0.716 | 0.609 | 0.754 | 0.656
3 | UMC-11 | 1.01 | 1.1 | 1.03 | 1.1 | 1.1 | 0.413 | 0.771 | 0.724 | 0.428 | 0.682 | 0.965 | 1.13 | 1.19 | 1.04 | 1.43 | 0.964 | 1.06 | 1.1 | 0.967 | 1.04
4 | PC-14 | 0.92 | 0.819 | 0.989 | 0.861 | 1.03 | 0.86 | 0.849 | 0.934 | 0.911 | 1 | 1.09 | 0.998 | 1.03 | 0.791 | 0.94 | 0.132 | 0.137 | 0.186 | 0.159 | 0.132
5 | A-427 | 1.12 | 1.15 | 1.12 | 0.94 | 1.26 | – | 0.971 | 0.871 | 0.942 | 0.967 | 0.877 | 1.02 | 1.08 | 0.863 | 1.01 | 1.04 | 1.09 | 0.934 | 0.822 | 0.737
6 | HCC-827 | 1.06 | 0.984 | 1.04 | 1.01 | 1.13 | 0.979 | 1.05 | 1.16 | 0.762 | 1.06 | 1.01 | 0.996 | 0.84 | 0.597 | 0.857 | 0.689 | 0.6 | 0.624 | 0.742 | 0.589
7 | ABC-1 | 1.02 | 1.04 | 1.17 | 0.916 | 1.29 | 0.269 | 0.285 | 0.289 | 0.285 | 0.257 | 1.16 | 1.11 | 1.03 | 0.942 | 0.724 | 0.456 | 0.682 | 0.801 | 1.02 | 0.741
8 | EPLC-272H | 0.639 | 0.745 | 0.579 | 0.735 | 0.637 | – | 1 | 0.91 | 0.79 | 0.876 | 0.601 | 0.66 | 0.632 | 0.424 | 0.695 | 0.25 | 0.658 | 0.279 | 0.353 | 0.318
9 | NCI-H520 | 0.808 | 0.64 | 0.706 | – | 0.829 | 0.517 | 0.472 | 0.711 | 0.591 | 0.61 | 0.793 | 1.17 | 0.852 | 0.528 | 0.81 | 0.248 | 0.191 | 0.252 | 0.23 | 0.303
10 | BEN | 0.662 | 0.514 | 0.643 | 0.852 | 0.573 | 0.56 | 0.899 | 0.891 | 0.506 | 0.776 | 0.357 | 0.736 | 0.697 | 0.508 | 0.625 | 0.178 | 0.395 | 0.563 | 0.199 | 0.236
11 | NCI-H2087 | 1.09 | 0.97 | 0.937 | 1.15 | 1.21 | 0.736 | 1.09 | 0.994 | 0.61 | 0.769 | 1.1 | 1.21 | 1.07 | – | 1.03 | 0.142 | 0.15 | 0.187 | 0.219 | 0.185
12 | NCI-H661 | 1.06 | 1.01 | 1.09 | 1.04 | 1.12 | 0.782 | 0.92 | 0.887 | 0.772 | 0.899 | 0.996 | 1 | 0.981 | 0.94 | 0.904 | 0.87 | 0.961 | 0.895 | 0.963 | 0.987
13 | LCLC-103H | 0.747 | 0.867 | 0.787 | 0.764 | 0.85 | 1.06 | 1.03 | 1.09 | 1.1 | 1.01 | 0.729 | 0.787 | 0.84 | 0.514 | 0.824 | 1.06 | 1.15 | 0.94 | 1.11 | 0.899
14 | NCI-H441 | 0.989 | 0.93 | 0.872 | 1.13 | 0.95 | 0.923 | 0.689 | 0.455 | 0.407 | 0.507 | 0.974 | 1.17 | 1.04 | – | 0.925 | 0.354 | 0.485 | 0.303 | 0.469 | 0.321
15 | LOU-NH91 | 0.917 | 0.659 | 0.981 | 0.962 | 0.957 | 0.429 | 0.503 | 0.493 | 0.487 | 0.407 | 0.841 | 0.874 | 0.935 | 0.868 | 0.874 | 0.293 | 0.414 | 0.354 | 0.303 | 0.324
16 | NCI-H647 | 1.26 | 1.16 | 1.03 | 1.23 | 1.56 | 1.18 | 1.14 | 1.24 | 0.811 | 1.11 | 1.07 | 1.25 | 1.04 | 0.724 | 1.11 | 0.142 | 0.157 | 0.108 | 0.143 | 0.136
17 | NCI-H1915 | 1.07 | 1.11 | 1.08 | 1.08 | 1.13 | 0.731 | 1.02 | 1.04 | 0.853 | 1.05 | 1.09 | 1.15 | – | – | 1.12 | 0.861 | 0.974 | 0.9 | 0.899 | 0.89
18 | HARA | 0.768 | 0.907 | 0.945 | 0.821 | 0.919 | 1.19 | 1.17 | 1.27 | 1.15 | 1.1 | – | 1.08 | 0.978 | – | 0.656 | 0.603 | 0.983 | 0.719 | 1.03 | 0.597
19 | NCI-H2347 | 0.954 | 0.747 | 1.12 | 1.11 | 0.799 | 0.831 | 1.03 | 0.967 | 0.901 | 1.11 | 0.684 | – | 1.05 | 0.689 | 0.804 | 0.631 | 0.438 | 0.866 | 0.5 | 0.417
